Assays:
Assay in all cases: relative viability (nuclei count vs DMSO), 5 days (fraction); higher = more cells survive
[1] = compound: Cn1c(=O)n(-c2ccc(C(C)(C)C#N)cc2)c2c3cc(-c4cnc5ccccc5c4)ccc3ncc21 [Dactolisib] + C[C@@H](Oc1cc(-c2cnn(C3CCNCC3)c2)cnc1N)c1c(Cl)ccc(F)c1Cl [Crizotinib] (partner 1 µM)
Method in brief: (§1)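 Nuclei were stained with Hoechst during a one-step fixation (final 0.05% Triton X-100, 1% formaldehyde, 1 ug/ml Hoechst) carried out 5 days after dosing, then counted on 4× images. The cells, lung cancer lines in 1536-well plates, had been dosed by pin tool the day after seeding with one drug alone or a fixed anchor-drug dose plus five library-drug doses (not always all listed) in √10 steps. Relative viability is the nuclei count in treated wells divided by that in vehicle wells, and each value is the median of duplicate plates.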

[2] = compound: C1CCC(CC1)N(CCNCCC2=C3C(=C(C=C2)O)NC(=O)CO3)C(=O)CCNCCC4=CC(=C(C=C4)Cl)Cl [AZ505] + O=C(c1cc(Cc2n[nH]c(=O)c3ccccc23)ccc1F)N1CCN(C(=O)C2CC2)CC1 [Olaparib] (partner 8 µM)
Method in brief: as §1

[3] = compound: C1CCC(CC1)N(CCNCCC2=C3C(=C(C=C2)O)NC(=O)CO3)C(=O)CCNCCC4=CC(=C(C=C4)Cl)Cl [AZ505] + C[C@]1(O)C[C@@H](c2nc(-c3ccc4ccc(-c5ccccc5)nc4c3)c3c(N)nccn32)C1 [Linsitinib] (partner 1 µM)
Method in brief: as §1

[4] = compound: C1CCC(CC1)N(CCNCCC2=C3C(=C(C=C2)O)NC(=O)CO3)C(=O)CCNCCC4=CC(=C(C=C4)Cl)Cl [AZ505] + CC(=O)c1c(C)c2cnc(Nc3ccc(N4CCNCC4)cn3)nc2n(C2CCCC2)c1=O [Palbociclib] (partner 0.5 µM)
Method in brief: as §1

## UMC-11
[1]; first compound 0.002 µM
  relative viability: 0.556
[1]; first compound 0.006325 µM
  relative viability: 0.585
[1]; first compound 0.02 µM
  relative viability: 0.403
[1]; first compound 0.06325 µM
  relative viability: 0.275
[1]; first compound 0.2 µM
  relative viability: 0.155
[2]; first compound 0.08 µM
  relative viability: 0.366
[2]; first compound 0.253 µM
  relative viability: 0.372
[2]; first compound 0.8 µM
  relative viability: 0.363
[2]; first compound 2.53 µM
  relative viability: 0.383
[2]; first compound 8 µM
  relative viability: 0.381
[3]; first compound 0.08 µM
  relative viability: 0.971
[3]; first compound 0.253 µM
  relative viability: 1.06
[3]; first compound 0.8 µM
  relative viability: 1.01
[3]; first compound 2.53 µM
  relative viability: 0.951
[3]; first compound 8 µM
  relative viability: 1.05
[4]; first compound 0.08 µM
  relative viability: 0.303
[4]; first compound 0.253 µM
  relative viability: 0.33
[4]; first compound 0.8 µM
  relative viability: 0.332
[4]; first compound 2.53 µM
  relative viability: 0.337
[4]; first compound 8 µM
  relative viability: 0.321
